Measured values: patent publication US7795307B2, “Carbamoyl esters that inhibit cholinesterase and release pharmacologically active agents” (priority 2003, dated 2010)

Tests used:
[1] = molecular target: human recombinant acetylcholinesterase (Homo sapiens, UniProt P22303); experiment: biochemical; details: 25° C., 30 minutes preincubation, 0.3 mM acetylthiocholine, Dixon plot
[2] = tested on: total cholinesterase activity in the brain; experiment: Total cholinesterase activity in brain homogenate of rats after i.p. injection; type: in vivo, Male Wistar rats; details: for ChE inhibition: brain 3 hours after injection, relative to saline treated rats; for tolerability of the injected dose: i.p., male Wistar rats, dose giving a cholinergic behavioral effect with minimal side effects
Method: Animals were decapitated 3 hours after injection and the brains rapidly removed. The brain tissue was diced into small pieces, placed on ice and immediately homogenized with a Polytron PT1200 (Kinematic AG) in 10 ml ice cold Tris with 0.1% Triton-X and protease inhibitors. The protease inhibitors in the extraction buffer were Antipain (10 μM), Aprotinin (5 TIU/mg protein), Bestatin ([…]), Leupeptin (10 μM) and Pepstatin (1 μM). The final dilution of the homogenate in the final assay mixture was 120-fold.
Total cholinesterase activity was determined by a modification of the colorimetric method of Ellmann, et al. (Biochem. Pharmacol., 7:88-95 (1961)), as described above. Hydrolysis of acetylthiocholine was monitored indirectly by measurement of the formation of the conjugate between thiocholine and DTNB. Optical density at 405 nm was recorded during five (5) minutes employinga a microplate spectrophotometer (Polarstar, BMG Labtech), and plotted against time. The initial rates were calculated from the slope of the linear portion of the graph.
Cholinesterase activity was normalized for protein content of the homogenate. Relative cholinesterase activity was calculated as the ratio of normalized cholinesterase activity in a rat treated with a control compound or a carbamoyl ester over normalized cholinesterase activity in saline treated rats.

human recombinant acetylcholinesterase, sequence (P22303 32-614): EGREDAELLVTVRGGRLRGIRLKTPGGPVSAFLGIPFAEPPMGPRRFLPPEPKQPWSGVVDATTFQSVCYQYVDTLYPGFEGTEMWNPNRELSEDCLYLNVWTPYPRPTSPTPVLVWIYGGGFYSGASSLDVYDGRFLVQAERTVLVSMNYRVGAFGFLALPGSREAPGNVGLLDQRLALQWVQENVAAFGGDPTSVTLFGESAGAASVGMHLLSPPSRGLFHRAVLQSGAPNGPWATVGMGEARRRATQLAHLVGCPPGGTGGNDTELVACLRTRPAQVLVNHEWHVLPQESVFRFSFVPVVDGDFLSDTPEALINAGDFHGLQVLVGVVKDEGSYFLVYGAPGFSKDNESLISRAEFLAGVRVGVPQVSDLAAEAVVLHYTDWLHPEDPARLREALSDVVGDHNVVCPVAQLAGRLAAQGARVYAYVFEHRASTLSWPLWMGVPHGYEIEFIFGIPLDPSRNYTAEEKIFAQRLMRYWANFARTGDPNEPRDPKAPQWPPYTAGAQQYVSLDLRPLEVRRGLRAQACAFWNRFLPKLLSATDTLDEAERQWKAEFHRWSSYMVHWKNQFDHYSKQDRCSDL

SMILES	IC50 [1] [µM]	tolerability of the injected dose [2]	other results
Cc1ccccc1O[C@H](CCN(C)C(=O)Oc1cccc([C@H](C)N(C)C)c1)c1ccccc1 [Compound 5]	0.46		
C[C@H](Cc1ccccc1)N(C)C(=O)Oc1cccc([C@H](C)N(C)C)c1 [Compound 7]		well-tolerated	ChE inhibition ([2]; 2 mg/kg i.p.): 38%
C[C@H](Cc1ccccc1)NC(=O)Oc1cccc([C@H](C)N(C)C)c1 [Compound 9]		well-tolerated	ChE inhibition ([2]; 8 mg/kg i.p.): 41%
C[C@H](Cc1ccccc1)N(C)C(=O)Oc1ccc2c(c1)[C@]1(C)CCN(C)[C@@H]1N2C [Compound 13]	5.44		
C[C@H](Cc1ccccc1)NC(=O)Oc1ccc2c(c1)[C@]1(C)CCN(C)[C@@H]1N2C [Compound 14]	0.253		
C[C@@H](Cc1ccccc1)NC(=O)Oc1cccc([C@H](C)N(C)C)c1 [Compound 20]	0.449		
CCN(C)C(=O)Oc1cccc([C@H](C)N(C)C)c1 [Rivastigmine, reference compound]		well-tolerated	
